Source: patent publication US20100216889A1, “PROLONGED EFFECT DISINFECTANT CLEANSER” (THE TRUSTEES OF COLUMBIA UNIVERSITY IN THE CITY OF, priority 2007, published 2010)

Test system: S. aureus
Assay: Antiseptics and combinations in soap base C, mixed one minute with S. aureus
Type: cell-based
Details: antiseptics in soap base C; for Colony counts: 0.1 ml of 10^8 cfu/ml S. aureus mixed for one minute; for Log10 reduction from Control: S. aureus, one minute, control = soap base
Method: To 0.9 ml of the base, 0.1 ml of 10^8 cfu/ml of S. aureus was added and mixed for one minute, after which 9.0 ml of drug inactivating media was added. The samples were mixed well and serial dilutions were made with drug inactivating media. Various dilutions were plated on TSA plates. As the control, […] of soap base was used.

Compound | Colony counts | Log10 reduction from Control
N=C(NCCCCCCNC(=N)NC(=N)Nc1ccc(Cl)cc1)NC(=N)Nc1ccc(Cl)cc1.O=C(O)[C@H](O)[C@@H](O)[C@H](O)[C@H](O)CO.O=C(O)[C@H](O)[C@@H](O)[C@H](O)[C@H](O)CO [0.2% CHG, Chlorhexidine gluconate] | 4.1 × 10^6 | 0.92
Oc1cc(Cl)ccc1Oc1ccc(Cl)cc1Cl [0.5% TC, Triclosan] | 4.3 × 10^6 | 0.89
CC(C)(C)CC(C)(C)c1ccc(OCCOCC[N+](C)(C)Cc2ccccc2)cc1.[Cl-] [0.18% BZT, Benzathonium chloride] | 3.9 × 10^6 | 0.94
Polyhexamethylene biguanide [0.3% PHMB] | 2.0 × 10^6 | 1.17
